# Entries after “also recorded” stand apart in the source; their conditions may differ.
# Experiments:
# [1] = molecular target: T1, 15-LO (Glycine max, UniProt P08170); experiment: Effect on 15-LO catalysed oxidation of arachidonic acid; assay type: biochemical, soybean; details: preliminary experiment, result in words
# T1 construct: purchased Sigma Chemical Company
# T1 sequence (P08170 1-839): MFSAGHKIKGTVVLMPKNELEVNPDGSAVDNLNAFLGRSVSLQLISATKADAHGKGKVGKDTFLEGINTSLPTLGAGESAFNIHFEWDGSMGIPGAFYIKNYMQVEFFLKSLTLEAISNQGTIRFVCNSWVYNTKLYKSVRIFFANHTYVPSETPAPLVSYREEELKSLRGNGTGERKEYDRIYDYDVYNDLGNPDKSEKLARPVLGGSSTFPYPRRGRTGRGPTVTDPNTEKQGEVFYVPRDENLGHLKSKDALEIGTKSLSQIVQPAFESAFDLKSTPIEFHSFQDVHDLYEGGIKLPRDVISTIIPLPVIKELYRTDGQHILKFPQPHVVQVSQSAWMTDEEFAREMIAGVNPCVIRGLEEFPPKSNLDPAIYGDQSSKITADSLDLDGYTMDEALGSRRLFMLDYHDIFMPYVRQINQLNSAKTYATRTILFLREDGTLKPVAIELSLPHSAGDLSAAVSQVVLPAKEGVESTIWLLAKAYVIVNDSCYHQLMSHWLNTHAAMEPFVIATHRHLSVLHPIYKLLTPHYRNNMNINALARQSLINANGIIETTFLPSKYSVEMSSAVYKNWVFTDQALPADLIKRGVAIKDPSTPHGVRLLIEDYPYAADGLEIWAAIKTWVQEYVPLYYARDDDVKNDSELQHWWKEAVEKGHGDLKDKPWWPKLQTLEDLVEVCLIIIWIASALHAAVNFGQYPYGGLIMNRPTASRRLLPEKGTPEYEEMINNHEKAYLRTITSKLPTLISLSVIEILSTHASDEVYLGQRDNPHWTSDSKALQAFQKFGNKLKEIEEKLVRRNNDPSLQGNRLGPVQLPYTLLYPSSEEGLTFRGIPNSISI
# [2] = tested on: DU145 cells; experiment: DU145 tumour cell survival (MTS cell proliferation assay); assay type: cell-based, human; details: for DU145 cell survival, screening test: 20 μM fatty acid, 24 hrs, MTS (FIG. 4); for DU145 cell proliferation: 24 h, MTS assay (FIG. 5A); for Anti tumour effect on DU145 tumour cells: various concentrations and times (FIGS. 1, 2)
# Description: Lx compounds were tested for activity against two androgen insensitive prostate cancer tumour cell lines, DU145(liver metastases) and PC3(brain metastases). […] Survival was measured using the MTS cell proliferation assay.
# Various concentrations for varying amounts of time of Lx compounds were added to either DU145 or PC3 tumour cells in culture. Viability/death of tumour cells was measured by a standard colourimetric assay. […] It is also evident from the results (FIG. 2) that the saturated nitro compound Lx1 (19:0-NO2) is not active and neither is MP2 (β-thia 23:0), a saturated […] fatty acid. […] In a further screening test, the human prostate cell line, DU145 cells (liver metastases), was treated for 24 hrs with 20 μM Fatty Acid and cell survival was measured using the MTS cell proliferation assay. This assay uses colourimetric measurement of substrate conversion to formazan which occurs only in the presence of NADH in a metabolically active cell. There was varied anti-tumour activity amongst the different types of PUFA.
# (§1) DU145 cells were treated with PUFA and incubated for 24 h (for the proliferation assay), 4 h (for the caspase assay) and for 18 h (for PARP cleavage).
# (§2) Proliferation was quantitated by MTS assay. Caspases 3 and 7 were assayed by a fluorometric assay using a […] substrate. PARP cleavage was measured by Western blots using an anti PARP antibody.
# [3] = molecular target: 5-LO (Solanum tuberosum, UniProt P37831); experiment: Effect on 5-LO catalysed oxidation of arachidonic acid; assay type: biochemical; details: preliminary experiment, purified enzyme, result in words
# Sequence of 5-LO (P37831 whole entry): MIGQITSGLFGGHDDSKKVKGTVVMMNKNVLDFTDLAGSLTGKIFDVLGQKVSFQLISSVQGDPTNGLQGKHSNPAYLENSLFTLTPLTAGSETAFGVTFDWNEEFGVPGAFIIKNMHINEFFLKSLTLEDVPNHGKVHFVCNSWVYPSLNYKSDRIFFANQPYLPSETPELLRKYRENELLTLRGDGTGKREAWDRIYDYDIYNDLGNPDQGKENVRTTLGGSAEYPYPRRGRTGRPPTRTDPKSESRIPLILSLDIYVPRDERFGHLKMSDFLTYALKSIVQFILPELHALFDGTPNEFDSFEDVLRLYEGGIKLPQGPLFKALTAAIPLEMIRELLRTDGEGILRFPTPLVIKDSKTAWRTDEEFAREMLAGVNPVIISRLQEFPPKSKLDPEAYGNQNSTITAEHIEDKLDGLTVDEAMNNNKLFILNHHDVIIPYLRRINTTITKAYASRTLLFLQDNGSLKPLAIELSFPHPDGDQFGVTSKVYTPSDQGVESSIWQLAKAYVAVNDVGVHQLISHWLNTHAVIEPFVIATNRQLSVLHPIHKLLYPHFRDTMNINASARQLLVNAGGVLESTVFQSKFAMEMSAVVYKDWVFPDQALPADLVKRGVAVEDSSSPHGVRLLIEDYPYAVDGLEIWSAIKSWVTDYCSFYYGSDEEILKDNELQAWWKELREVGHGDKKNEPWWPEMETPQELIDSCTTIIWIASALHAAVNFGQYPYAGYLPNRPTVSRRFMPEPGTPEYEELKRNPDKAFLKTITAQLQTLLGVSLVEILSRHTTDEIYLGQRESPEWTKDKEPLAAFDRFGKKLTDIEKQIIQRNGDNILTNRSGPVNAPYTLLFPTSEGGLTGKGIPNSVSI
# Description: Based on this consideration, 5-LO, 12-LO and 15-LO catalysed oxidation of the nitro compounds (4a, 4b, 6a, 6b, 8a and 8b) was investigated. Each of the nitro compounds was treated with 15-LO in pH 9.0 buffer (or 5-LO in pH 6.3 buffer and 12-LO in pH 7.4 buffer), and the formation of 15-hydroperoxy derivatives (or 5-hydroperoxy or 12-hydroperoxy derivatives) over time was monitored by LW spectroscopy at 234 nm. […]
# [4] = molecular target: T2, 12-LO (Sus scrofa, UniProt P16469); experiment: Effect on 12-LO catalysed oxidation of arachidonic acid; assay type: biochemical, porcine; details: preliminary experiment, result in words
# T2 construct: purchased Cayman Chemical Company
# T2 sequence (P16469 1-663): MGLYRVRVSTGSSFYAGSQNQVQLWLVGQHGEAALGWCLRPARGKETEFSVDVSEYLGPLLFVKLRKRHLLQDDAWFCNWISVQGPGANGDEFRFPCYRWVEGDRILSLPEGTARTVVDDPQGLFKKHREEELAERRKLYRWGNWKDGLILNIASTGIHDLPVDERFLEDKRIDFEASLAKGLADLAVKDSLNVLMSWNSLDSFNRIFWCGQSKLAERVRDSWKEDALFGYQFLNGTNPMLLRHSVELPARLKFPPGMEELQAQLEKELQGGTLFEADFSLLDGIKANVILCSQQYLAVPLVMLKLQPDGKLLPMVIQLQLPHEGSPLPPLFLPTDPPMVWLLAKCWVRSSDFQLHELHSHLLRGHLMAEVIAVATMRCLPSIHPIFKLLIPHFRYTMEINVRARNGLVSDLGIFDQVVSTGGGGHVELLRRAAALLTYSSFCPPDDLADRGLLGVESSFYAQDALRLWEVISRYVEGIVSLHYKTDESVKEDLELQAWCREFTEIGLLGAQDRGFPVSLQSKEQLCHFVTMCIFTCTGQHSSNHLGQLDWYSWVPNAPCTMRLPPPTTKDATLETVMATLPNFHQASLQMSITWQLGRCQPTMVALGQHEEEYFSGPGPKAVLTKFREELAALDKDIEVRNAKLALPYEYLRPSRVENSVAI
# Description: Based on this consideration, 5-LO, 12-LO and 15-LO catalysed oxidation of the nitro compounds (4a, 4b, 6a, 6b, 8a and 8b) was investigated. Each of the nitro compounds was treated with 15-LO in pH 9.0 buffer (or 5-LO in pH 6.3 buffer and 12-LO in pH 7.4 buffer), and the formation of 15-hydroperoxy derivatives (or 5-hydroperoxy or 12-hydroperoxy derivatives) over time was monitored by LW spectroscopy at 234 nm.
# A number of Lx compounds were tested for anti 5-LOX and 12-LOX activities in the human breast cancer cell line, MCF-7. […] The ability of 5-LOX and 12-LOX to produce oxidated products of 20:4n-6 with a different absorption wavelength in the presence of nitroso-PUFA was examined and is shown in the progress curves in FIG. 6. […] Within cells, activation of 5-LOX is facilitated by 5-LOX activating protein (FLAP). Thus, in intact cells, Lx7 and Lx9 may be able to activate 5-LOX at lower concentrations than those required in the purified enzyme system shown in FIG. 6. […] By being able to activate 5-LOX and suppress 12-LOX, these compounds have the desired characteristics of anti-breast cancer agents as discussed previously.
# 15-LO was obtained from Sigma Chemical Company, and 12-LO from Cayman Chemical Company. Arachidonic acid 1, linolenyl alcohol 57a, gamma linolenyl alcohol 5b, arachidonyl alcohol 57c and docosahexaenyl alcohol 57d were purchased from Nu-Chek Prep. Inc. Elysian, Minn., USA. Other chemicals were commercially available from Aldrich Chemical Company.
# [5] = tested on: MCF-7 cells; experiment: Killing of MCF-7 breast cancer cells in vitro; assay type: cell-based, human; details: in vitro (FIG. 7); compared with 20:4n-6 toxicity
# Description: While interference with 5-LOX or 12-LOX activity individually impacts on growth rates of human breast cancer MCF-7 cells^(55,56), the simultaneous modification of the activities of both enzymes at once may cause death. […] Lx4, a nitroso-compound with the same number of carbon atoms and degree of unsaturation as Lx9 but lacking a COOH group, was ineffective (FIG. 7).
# [6] = tested on: Caspases 3 and 7; experiment: Caspase 3 and 7 fluorometric assay in DU145 cells; assay type: cell-based, human; details: for Activation of caspases: DU145 cells, 4 h (FIG. 5B); for Induction of apoptosis in DU145 cells: concluded from caspase activation and PARP cleavage
# Description: as §1, §2
# [7] = tested on: PARP; experiment: PARP cleavage by Western blot in DU145 cells; assay type: cell-based, human; details: 18 h, anti PARP antibody (FIG. 5C)
# Description: as §1, §2
structure (smiles),measurement,setting,value
"CCCCC/C=C\C/C=C\C/C=C\CCCCC[N+](=O)[O-] [Lx3, (z,z,z)-1-Nitro-6,9,12-octadecatriene]",Effect on 15-LO catalysed oxidation of AA,[1],Nil
CCCCC/C=C\C/C=C\C/C=C\CCCCCSCC(=O)O [MP9],"DU145 cell survival, screening test",[2],most active
CCCCC/C=C\C/C=C\C/C=C\CCCCCSCCC(=O)O [MP12],"DU145 cell survival, screening test",[2],most active
"CCCCC/C=C\C/C=C\C/C=C\C/C=C\CCCC(CCC(=O)O)(CCC(=O)O)[N+](=O)[O-] [Lx9, 3-[(all-Z)-Nonadeca-4,7,10,13-tetraenyl]-3-nitropentane-1,5-dicarboxylic acid]",Effect on 5-LO catalysed oxidation of AA,[3],can activate 5-LOX; also recorded: Activatory
same,Effect on 12-LO catalysed oxidation of AA,[4],"direct, potent and rapid inhibitor of 12-LOX; also recorded: Inhibitory"
same,Effect on 12-LO catalysed oxidation of AA,"[4]; listed as 3-(all-Z)-nonadeca-4,7,10,13-tetraenyl]-3-nitropentane-1,5-dicarboxylic acid",selective inhibitors
same,Effect on 12-LO catalysed oxidation of AA,[4]; listed as 8b,significant inhibitory effect
same,Killing of MCF-7 tumour cells,[5],kill these tumour cells
same,Effect on 15-LO catalysed oxidation of AA,[1],Nil
"CC/C=C\C/C=C\C/C=C\CCCCCCCCOCC(=O)O [MP5, (Z,Z,Z)-(octadeca-9,12,15-trienyloxy) acetic acid]",DU145 cell proliferation,[2],marked inhibition of cell proliferation
same,Activation of caspases,[6],activation of caspases
same,Induction of apoptosis in DU145 cells,[6],induce apoptosis
same,PARP cleavage,[7],cleavage of PARP
"CC/C=C\C/C=C\C/C=C\CCCCCCCC[N+](=O)[O-] [Lx2, (z,z,z)-1-Nitro-9,12,15-octadecatriene]",Effect on 15-LO catalysed oxidation of AA,[1],Nil
"CC/C=C\C/C=C\C/C=C\CCCCCCCCSCCC(=O)O [MP13, 3-[(Z,Z,Z)-(octadeca-9,12,15-trienylthio)]propionic acid]","DU145 cell survival, screening test",[2],highly active
"CCCCCCCCCCCCCC[S+]([O-])CCC(=O)O (stereo not drawn) [Compound 113, 3-(tetradecylsulfinyl) propionic acid]",melting point,,166 to 167 °C
"CCCCC/C=C\C/C=C\C/C=C\C/C=C\CCCC[N+](=O)[O-] [Lx4, (all-z)-1-Nitro-5,8,11,14-eicosatetraene]",Effect on 5-LO catalysed oxidation of AA,[3],Nil
same,Effect on 12-LO catalysed oxidation of AA,[4],Nil
same,Killing of MCF-7 tumour cells,[5],ineffective
same,Effect on 15-LO catalysed oxidation of AA,[1],Nil
CCC=CCC=CCC=CCCCCCCCCSCC(=O)O [MP10],"DU145 cell survival, screening test",[2],most active
CCCCC/C=C\C/C=C\C/C=C\C/C=C\CCCCOCC(=O)O [MP3],"DU145 cell survival, screening test",[2],highly active
same,DU145 cell proliferation,[2],marked inhibition of cell proliferation
same,Activation of caspases,[6],activation of caspases
same,Induction of apoptosis in DU145 cells,[6],induce apoptosis
same,PARP cleavage,[7],cleavage of PARP
CC/C=C\C/C=C\C/C=C\C/C=C\C/C=C\C/C=C\CCC(=O)NCC(=O)O [PTS],"DU145 cell survival, screening test",[2],some activity
"CCCCCCCCCCCCCCCCCC(CCC(=O)O)[N+](=O)[O-] (stereo not drawn) [Lx6, 4-Nitrohenicosanoic acid]",Effect on 5-LO catalysed oxidation of AA,[3],Inhibitory
same,Effect on 5-LO catalysed oxidation of AA,[3]; listed as 4-nitrohenicosanoic acid,selective inhibitors
same,Effect on 5-LO catalysed oxidation of AA,[3]; listed as 6a,inhibiting 5-LO
same,Effect on 12-LO catalysed oxidation of AA,[4],Activatory
same,Killing of DU145 tumour cells,"[2]; 15 μM, after 24 hours of culture (FIG. 2)",killing of all the tumour cell population
same,Anti tumour effect on DU145 tumour cells,[2],concentration and time related effects
same,Effect on 15-LO catalysed oxidation of AA,[1],Activatory
same,Effect on 15-LO catalysed oxidation of AA,[1]; listed as 6a,not 15-LO
"CC/C=C\C/C=C\C/C=C\C/C=C\C/C=C\C/C=C\CCC[N+](=O)[O-] [Lx5, (all-z)-1-Nitro-4,7,10,13,16,19-docosahexaene]",Effect on 15-LO catalysed oxidation of AA,[1],Nil
CCC=CCC=CCC=CCC=CCC=CCC=CCCCOCC(=O)O [MP6],"DU145 cell survival, screening test",[2],most active
"CCCCC/C=C\C/C=C\C/C=C\C/C=C\CCCCSCC(=O)O [MP8, (all-Z)-(eicosa-5,8,11,14-tetraenylthio) acetic acid]","DU145 cell survival, screening test",[2],highly active
"CCCCCCCCCCCCCCCCCC[N+](=O)[O-] [Lx1, 1-Nitrooctadecane]",Effect on 5-LO catalysed oxidation of AA,[3],Nil
same,Effect on 12-LO catalysed oxidation of AA,[4],Nil
same,Anti tumour effect on DU145 tumour cells,[2],not active
same,Effect on 15-LO catalysed oxidation of AA,[1],Nil
